# According to patent publication US11371097B2, “Articles for diagnosis of liver fibrosis” (THE GOVERNMENT OF THE UNITED STATES, as represented by THE …, priority 2015, dated 2022):
# “And” between values parts separate entries of the source, which are not always exact repeats. Equal entries are not always repeated. “Also recorded” adds a separate entry of the source.
# Tests used:
# Tgfb1 = assay: qPCR of liver RNA: Tgfb1; type: in vivo, Male Sprague-Dawley rats; conditions: liver, across dose groups, vs control
# Procedure: Working on dry ice, a portion (−10 mg) of flash-frozen liver was cut from each sample and transferred to a clean, labeled tube. Total RNA was then isolated using Qiagen's miRNeasy 96 kit (Qiagen, Valencia, Calif.) following manufacturer's instructions with a final elution volume of −150 μL (2×75 μL). The quality and quantity of RNA samples were evaluated with a 2100 Bioanalyzer (Agilent Technologies, Santa Clara, Calif.), using the Agilent RNA 6000 Nano Reagents and a multiwell NanoDrop 8000 spectrophotometer (Thermo Fisher Scientific, Waltham, Mass.).
# Using 1 μg RNA input, cDNA was generated using a QuantiTect Reverse Transcription kit (Qiagen, Valencia, Calif.) following manufacturer's instructions. Applied Biosystems SYBR Green Master Mix was used in a 20 μL qPCR reaction with 2 μL of cDNA template and a 2.tM final concentration of each primer. A total of five genes were targeted (Gapdh, Actb, Timp1, Tgfbl, and Psma5), two of which served as the endogenous controls (Gapdh and Actb). An Applied Biosystems 7500 Real-Time PCR System (Applied Biosystems, Foster City, Calif.) was used for thermal cycling and fluorescence detection using the default settings for Quantitation-Comparative CT with SYBR® . . . Green Reagents which uses the following scheme: 95° C. for 10 minutes followed by 40 cycles of: 95° C. for 15 seconds, 60° C. for 1 minute, and a fluorescence signal read. Al! primers were obtained from Integrated DNA Technology's PrimeTime qPCR primer library (Integrated DNA Technologies, Coralville, Iowa).
# Data was imported into GraphPad Prism (GraphPad Software, Inc.; LaJolla, Calif.) for analysis. A nonparametric Kruskal-Wallis analysis of variance by ranks with post hoc […] multiple comparison test was used to determine statistical difference among dose groups. A one sample t-test compared to a theoretical mean of 1.0 fold change was used to determine difference from control for each dose group. A p-value<0.05 was used as a cutoff for statistical significance.
# [1] = system: 67 genes on the fibrosis gene panel; assay: Multiplexed fibrosis gene panel (QuantiGene 2.0 Plex / Bioplex) on liver RNA
# Procedure: mRNA is isolated and purified from lysed tissue biopsy specimens. The target mRNA is incubated with beads conjugated to capture probes (each probe is an oligonucleotides specific for one of the genes in the panel). The target is hybridized to the probe by a capture extender-capture probe interaction. Specific mRNA targets hybridize overnight to the respective beads. The signal is amplified by incubating mRNA-capture probe pairs by affixing an amplifier affixed to a biotinylated label probe. Streptavidin-conjugated phycoerythrin (SAPE) is bound to the biotinylated probe to amplify the signal. The signal is detected and quantified by Bioplex suspension array instrumentation, which measures the SAPE fluorescence signal proportional to the amount of mRNA transcripts captured by the bead.
# Candidate genes identified by co-expression modules and pathway/network approaches were fabricated into a custom gene panel using a commercial source (the QuantiGene 2.0 Plex assay, Affymetrix, Santa Clara, Calif.). A total of 71 genes plus 3 housekeeping genes were selected. Using 150 ng RNA input, samples were processed following manufacturer's instructions for purified RNA with use of the HandHeld Magnetic Plate Washer. Plates were read immediately following the final wash using the BioPlex 200 instrument (BioRad, Hercules, Calif.). The following parameters were set on the BioPlex instrument: sample size=100 μL; DD Gate=5,000-25,000; Timeout=45 sec; Bead Event/Bead Region=100.
# For each sample, the average signal intensity was determined as recommended by the manufacturer. Duplicates were averaged. The average background signal for each gene was subtracted. Assay limit of detection was determined by adding three standard deviations of assay background signals to the average intensity of the background control wells. All intensities lower than the limit of detection for each probe was set to one unit above the probe's limit of detection. Probes with all intensities below the assay limit of detection were removed from the final analysis. The test gene signal was divided by the average intensities of the three normalization genes (Gapdh, Hprt1, Ppib). For each test gene, the fold change was calculated by dividing the normalized value for the treated samples by the normalized value of the vehicle-treated controls. Fold changes were plotted as log2 fold change. Gene expression data were imported into Partek Genomics Suite 6.0 (Partek, Inc., St. Louis, Mo.). Principal component analysis was used for multivariate interpretation to determine sources of variation across sample groups (Joliffe I T, Morgan B J. Principal component analysis and exploratory factor analysis. Statistical methods in medical research 1992; 1(1):69-95). Differentially expressed genes were determined by analysis of variance (ANOVA) with contrasts, setting the ANOVA factors as toxicant and the histopathological endpoint of fibrosis (any score >0). ANOVA variables were fibrosis score 0 (none) vs. score of >0 (minimal, mild, moderate, and marked). For hierarchical biclustering, differentially expressed genes were standardized by setting the genes expressed to a mean of zero and scaling to a standard deviation of one. Euclidean geometry was used to cluster row and column dissimilarity using a method of average linkage.
# Chemical-dose groups were down-selected based on histopathology to conform to the 96-well assay format of the multiplexed panel of presumptive fibrosis genes. Three of the four dose groups were evaluated for the fibrogenic chemicals allyl alcohol and 4,4′-methylenedianiline. A single dose was selected with group-matched vehicle controls for each of the remaining chemicals. […] The highest dose of bromobenzene was selected because the vacuolation pathology was only observed at this dose.
# Isolated liver RNA was incubated with microbead-bound capture probes specific for the 71 presumptive fibrogenic genes and three housekeeping normalization genes.
# [2] = 4,4′-MDA 59.7 mg/kg, animals 93-96
# [3] = liver RNA, individual animals, Carbon Tetrachloride 200, Bromobenzene 785, Dexamethasone 1 mg/kg
# [4] = liver, relative to the other pathologies
smiles,measurement,setting,value
"Nc1ccc(Cc2ccc(N)cc2)cc1 [4,4′-methylenedianiline]",Tgfb1 gene expression by qPCR,Tgfb1,showed a dose-dependent increase; also recorded: dose-dependent increases in gene expression
same,Anxa2 differential expression,[1]; [2],2.439 and 1.755 and 2.514
same,Arpc1b differential expression,[1]; [2],1.147 and 1.069 and 1.373
same,C1qb differential expression,[1]; [2],0.893 and 0.937 and 1.469
same,CD53 differential expression,[1]; [2],0.950 and 1.045 and 1.560
same,Capg differential expression,[1]; [2],1.169 and 1.723 and 2.026
same,Ccl2 differential expression,[1]; [2],1.483 and 1.928 and 1.705
same,Ctgf differential expression,[1]; [2],1.026 and 0.691 and 1.013
same,Cxcl16 differential expression,[1]; [2],1.969 and 1.196 and 2.174
same,Cyba differential expression,[1]; [2],1.216 and 1.165 and 2.041
same,Dsc2 differential expression,[1]; [2],0.258 and 0.244 and 0.474
same,Fam102b differential expression,[1]; [2],0.577 and 0.939 and 0.845
same,Fam105a differential expression,[1]; [2],1.236 and 1.186 and 1.900
same,Fxyd5 differential expression,[1]; [2],1.025 and 0.916 and 1.613
same,Gpnmb differential expression,[1]; [2],1.876 and 1.911 and 3.162
same,Itga1 differential expression,[1]; [2],1.064 and 1.196 and 1.743
same,Itgb2 differential expression,[1]; [2],0.709 and 1.138 and 1.216
same,Lame2 differential expression,[1]; [2],1.485 and 0.755 and 1.416
same,Lbp differential expression,[1]; [2],2.023 and 1.422 and 2.026
same,Lgals3 differential expression,[1]; [2],1.931 and 2.085 and 2.575
same,Pkm2 differential expression,[1]; [2],1.314 and 1.491 and 2.389
same,Plau differential expression,[1]; [2],0.941 and 0.957 and 1.332
same,RT1-DMa differential expression,[1]; [2],1.381 and 2.022 and 2.522 and 1.938
same,RT1-Da differential expression,[1]; [2],1.431 and 2.375 and 2.640
same,Serpine1 differential expression,[1]; [2],1.151 and 1.305 and 1.475
same,TagIn2 differential expression,[1]; [2],1.404 and 1.169 and 1.971
same,Timp1 differential expression,[1]; [2],1.871 and 1.153 and 2.099
same,RT1-DMa differential expression,"[1]; 4,4′-MDA 162 mg/kg, animals 97-100",1.970 and 1.713 and 2.157 and 1.814
same,Hierarchical biclustering of log2 fold-changes in panel gene expression,"[1]; liver, 67 genes",clustered together
Brc1ccccc1 [bromobenzene],Tgfb1 gene expression by qPCR,Tgfb1,"not significantly affected at any dose; also recorded: slight, statistically insignificant increase"
same,Pcolce expression levels compared with fibrogenic compounds,[1]; liver,"anti-correlated with corresponding gene expression levels induced by 4,4′-methylenedianiline and allyl alcohol"
same,Differential Expression of A2m,[1]; [3],−4.054 and −4.444 and −2.844 and −1.670
same,Differential Expression of Angptl3,[1]; [3],−0.864 and −1.104 and −0.499 and −0.518
same,Differential Expression of Anxa2,[1]; [3],1.771 and 1.226 and 1.391 and 0.783
same,Differential Expression of Apoc,[1]; [3],−0.325 and −0.372 and −0.172 and −0.338
same,Differential Expression of Arf6,[1]; [3],0.324 and 0.475 and 0.461 and 0.239
same,Differential Expression of Arpc1b,[1]; [3],−0.171 and −0.454 and −0.337 and −0.315
same,Differential Expression of Arrb1,[1]; [3],−1.220 and −1.482 and −0.627 and −2.254
same,Differential Expression of C1qb,[1]; [3],−0.465 and −0.014 and 0.309 and 0.018
same,Differential Expression of CD9,[1]; [3],−0.072 and −0.052 and 0.416 and 0.476
same,Differential Expression of CD53,[1]; [3],−0.045 and −0.339 and 0.303 and −0.440
same,Differential Expression of CP,[1]; [3],−1.055 and −0.969 and −0.530 and −1.250
same,Differential Expression of Capg,[1]; [3],−0.835 and −0.762 and 0.053 and −1.140
same,Differential Expression of Ccl2,[1]; [3],−0.790 and −1.244 and −1.328 and −1.622
same,Differential Expression of Col1a1,[1]; [3],−0.659 and −0.336 and 0.149 and −0.231
same,Differential Expression of Col1a2,[1]; [3],−0.901 and −0.686 and −0.378 and −0.731
same,Differential Expression of Col4a1,[1]; [3],−0.512 and −0.387 and −0.163 and −0.340
same,Differential Expression of Col5a2,[1]; [3],−0.708 and −0.778 and −0.542 and −0.877
same,Differential Expression of Ctgf,[1]; [3],−1.387 and −1.037 and −0.649 and −0.389
same,Differential Expression of Cxcl1,[1]; [3],−0.610 and −0.492 and −0.386 and −0.930
same,Differential Expression of Cxcl12,[1]; [3],−2.564 and −2.540 and −1.640 and −2.717
same,Differential Expression of Cxcl16,[1]; [3],−0.140 and −1.150 and −0.275 and −0.468
same,Differential Expression of Cyba,[1]; [3],−0.761 and −0.590 and 0.049 and −0.752
same,Differential Expression of Cyp2c11,[1]; [3],−7.760 and −8.696 and −7.411 and −6.882
same,Differential Expression of Dsc2,[1]; [3],0.800 and 0.827 and 0.610 and 0.624
same,Differential Expression of Fam102b,[1]; [3],−0.808 and −0.338 and −0.148 and −0.780
same,Differential Expression of Fam105a,[1]; [3],−0.461 and −0.047 and 0.188 and −0.207
same,Differential Expression of Fbn1,[1]; [3],−1.303 and −1.090 and −0.632 and −1.013
same,Differential Expression of Fn1,[1]; [3],−1.880 and −1.522 and −1.313 and −1.481
same,Differential Expression of Fstl1,[1]; [3],−1.078 and −0.899 and −0.423 and −1.140
same,Differential Expression of Fxyd5,[1]; [3],−0.189 and −0.159 and 0.283 and −0.184
same,Differential Expression of Gpnmb,[1]; [3],1.906 and 1.987 and 2.373 and 1.454
same,Differential Expression of Igfals,[1]; [3],−2.524 and −2.336 and −2.083 and −3.007
same,Differential Expression of Igfbp1,[1]; [3],3.275 and 3.897 and 0.758 and 3.616
same,Differential Expression of Igfbp2,[1]; [3],0.339 and 0.249 and −0.180 and 0.559
same,Differential Expression of Igfbp3,[1]; [3],−2.127 and −1.911 and −1.316 and −1.713
same,Differential Expression of Itga1,[1]; [3],−0.672 and −0.525 and 0.257 and −0.880
same,Differential Expression of Itgb2,[1]; [3],−0.722 and −0.914 and −0.301 and −1.032
same,Differential Expression of Lame2,[1]; [3],−0.725 and −1.692 and −0.854 and −1.188
same,Differential Expression of Lbp,[1]; [3],0.157 and 0.036 and 0.207 and −0.066
same,Differential Expression of Len2,[1]; [3],−0.682 and −0.719 and −0.661 and −1.007
same,Differential Expression of Lgals1,[1]; [3],−0.856 and −0.388 and −0.455 and −0.084
same,Differential Expression of Lgals3,[1]; [3],1.367 and 0.936 and 1.432 and 0.867
same,Differential Expression of Lgals3bp,[1]; [3],−0.415 and −0.105 and 0.126 and −0.427
same,Differential Expression of Lox,[1]; [3],−1.197 and −1.023 and −0.699 and −0.615
same,Differential Expression of Lrp1,[1]; [3],−1.297 and −1.003 and −0.323 and −1.011
same,Differential Expression of Lum,[1]; [3],−0.152 and −0.296 and −0.116 and −0.530
same,Differential Expression of Mmp2,[1]; [3],−0.086 and 0.177 and 0.235 and −0.151
same,Differential Expression of Nid1,[1]; [3],−0.460 and −0.132 and 0.014 and −0.579
same,Differential Expression of Pcolce,[1]; [3],−1.230 and −0.974 and −0.145 and −1.087
same,Differential Expression of Pkm2,[1]; [3],−0.142 and −0.085 and 0.069 and −0.110
same,Differential Expression of Plat,[1]; [3],0.202 and 0.005 and 0.027 and 0.084
same,Differential Expression of Plau,[1]; [3],−1.049 and −0.402 and −0.470 and −1.553
same,Differential Expression of Plod2,[1]; [3],−0.446 and −0.410 and −0.613 and −0.623
same,Differential Expression of RT1-DMa,[1]; [3],−0.569 and −0.589 and 0.149 and −0.606
same,Differential Expression of RT1-Da,[1]; [3],−0.205 and −0.563 and 0.533 and −0.554
same,Differential Expression of S100A6,[1]; [3],−0.521 and 0.005 and −0.682 and 0.207
same,Differential Expression of S100A11,[1]; [3],−0.356 and −0.292 and 0.061 and −0.441
same,Differential Expression of Serpine1,[1]; [3],0.153 and 0.825 and −0.550 and 0.552
same,Differential Expression of Serping1,[1]; [3],−1.107 and −0.925 and −0.627 and −0.678
same,Differential Expression of Slc25a24,[1]; [3],−0.143 and 0.149 and 0.189 and −0.325
same,Differential Expression of Sod2,[1]; [3],0.200 and −0.035 and 0.134 and 0.187
same,Differential Expression of TagIn2,[1]; [3],−0.669 and −0.625 and 0.147 and −0.816
same,Differential Expression of Tgfb1,[1]; [3],−0.596 and −0.528 and −0.330 and −0.639
same,Differential Expression of Timp1,[1]; [3],−0.428 and −0.191 and −0.231 and −0.056
same,Differential Expression of Vhl,[1]; [3],0.043 and −0.096 and −0.334 and −0.363
same,Differential Expression of Vim,[1]; [3],−0.148 and −0.045 and −0.109 and −0.327
same,Differential Expression of Vtn,[1]; [3],−1.353 and −1.261 and −0.746 and −0.854
same,Panel genes downregulated (and upregulated in fibrogenic chemical-dose groups),"[1]; liver, 67-gene panel, 1.5-fold threshold",12 genes
same,A2m expression,[1]; [4],downregulated
same,Lcn2 expression,[1]; [4],downregulated
same,Pcolce expression,[1]; [4],downregulated
